Laboratory results as given in patent publication EP4556004A1 (priority 2023, dated 2025).

What follows are compounds tested on HCoV-229E (assay: not given). Details: not given.
Format: cell-based, Human coronavirus 229E

Compound	reduction of HCoV-229E infection
CC(C)=CCC1=C(O)C(C(=O)C(C)C)=C(O)C(CC=C(C)C)(CC=C(C)C)C1=O [Colupulone, Co-lupulone]	able to reduce

The compounds below were run on SARS-CoV-2 (assay: SARS-CoV-2 antiviral assay in human primary epithelial nasal cells (Mucilair)). Details: not given.
Format: cell-based, severe acute respiratory syndrome coronavirus-2

Compound	reduction of SARS-CoV-2 infection
CC(C)=CCC1=C(O)C(C(=O)C(C)C)=C(O)C(CC=C(C)C)(CC=C(C)C)C1=O [Colupulone, Co-lupulone]	able to reduce

The compounds below were run on HCoV-229E (assay: microbe, parasite or virus in culture). Details: not given.
Format: cell-based, Human coronavirus 229E

Compound	IC50
CC(C)=CCc1c(O)cc(O)c(C(=O)C(C)C)c1O [AH62-F2, 2-methyl-1-(2,4,6-trihydroxy-3-(3-methylbut-2-en-1-yl)phenyl)propan-1-one]	< 3 µM
CC(C)=CCC1=C(O)C(C(=O)C(C)C)=C(O)C(CC=C(C)C)(CC=C(C)C)C1=O [Colupulone, Co-lupulone]	< 3 µM
CC(C)=CCc1c(O)cc(O)c(C(=O)C(C)C)c1O [AH56-F3, 2-methyl-1-(2,4,6-trihydroxy-3-(3-methylbut-2-en-1-yl)phenyl)propan-1-one]	> 24 µM
Ad-lupulone	< 12 µM

Same assay, conditions: Human coronavirus 229E, Huh-7

Compound	IC50
CCC(C)CC(=O)C1=C(O)C(CC=C(C)C)=C(O)C(CC=C(C)C)(CC=C(C)C)C1=O (stereo not drawn) [AH40-F1, 3,5-dihydroxy-4,6,6-tris(3-methylbut-2-en-1-yl)-2-(3-methylpentanoyl)cyclohexa-2,4-dien-1-one]	< 12 µM
CCC(C)C(=O)C1=C(O)C(CC=C(C)C)=C(O)C(CC=C(C)C)(CC=C(C)C)C1=O (stereo not drawn) [AH8-F2, 3,5-dihydroxy-4,6,6-tris(3-methylbut-2-en-1-yl)-2-(2-methylbutanoyl)cyclohexa-2,4-dien-1-one]	< 12 µM
CC(C)=CCC1=C(O)C(CC=C(C)C)(CC=C(C)C)C(=O)C(C(=O)CCCCCNc2ccc([N+](=O)[O-])c3nonc23)=C1O [AH77-F1, 3,5-dihydroxy-4,6,6-tris(3-methylbut-2-en-1-yl)-2-(6-((7-nitrobenzo[c][1,2,5]oxadiazol-4-yl)amino)hexanoyl)cyclohexa-2,4-dien-1-one]	< 12 µM
CC(C)=CCC1=C(O)C(CC=C(C)C)(CC=C(C)C)C(=O)C(C(=O)C(C)C)=C1O [LB.70-F2, 3,5-dihydroxy-4,6,6-tris(3-methylbut-2-en-1-yl)-2-(2-methylpropanoyl)cyclo-hexa-2,4-dien-1-one]	< 3 µM
CC(C)=CCC1(CC=C(C)C)C(=O)CC(O)=C(C(=O)CC(C)C)C1=O [LB68-F3, 5-hydroxy-2,2-bis(3-methylbut-2-en-1-yl)-4-(3-methylbutanoyl)cyclohex-4-ene-1,3-dione]	< 12 µM
CC(C)=CCC1=C(O)C(CC=C(C)C)(CC=C(C)C)C(=O)C(C(=O)C=Cc2ccccc2)=C1O [AH41-F1, 2-cinnamoyl-3,5-dihydroxy-4,6,6-tris(3-methylbut-2-en-1-yl)cyclohexa-2,4-dien-1-one]	< 12 µM
CCCCC(=O)C1=C(O)C(CC=C(C)C)=C(O)C(CC=C(C)C)(CC=C(C)C)C1=O [AH18-F4, 3,5-dihydroxy-4,6,6-tris(3-methylbut-2-en-1-yl)-2-pentanoylcyclohexa-2,4-dien-1-one]	< 12 µM
CC(C)=CCC1=C(O)C(CC=C(C)C)(CC=C(C)C)C(=O)C(C(=O)c2ccccc2)=C1O [AH47-F3, 2-benzoyl-3,5-dihydroxy-4,6,6-tris(3-methylbut-2-en-1-yl)cyclohexa-2,4-dien-1-one]	< 12 µM
CC(=O)C1=C(O)C(CC=C(C)C)=C(O)C(CC=C(C)C)(CC=C(C)C)C1=O [AH16-F2, 2-acetyl-3,5-dihydroxy-4,6,6-tris(3-methylbut-2-en-1-yl)cyclohexa-2,4-dien-1-one]	< 12 µM
CCCC(=O)C1=C(O)C(CC=C(C)C)=C(O)C(CC=C(C)C)(CC=C(C)C)C1=O [AH10-F2, 2-butyryl-3,5-dihydroxy-4,6,6-tris(3-methylbut-2-en-1-yl)cyclohexa-2,4-dien-1-one]	< 3 µM
CC(C)=CCC1=C(O)C(CC=C(C)C)(CC=C(C)C)C(=O)C(C(=O)/C=C/c2ccc(C(F)(F)F)cc2)=C1O [AH44-F2, (E)-3,5-dihydroxy-4,6,6-tris(3-methylbut-2-en-1-yl)-2-(3-(4-(trifluoromethyl)phenyl)acryloyl)cyclohexa-2,4-dien-1-one]	< 12 µM
CC(C)=CCC1=C(O)C(C(=O)CC(C)C)=C(O)C(CC=C(C)C)(CC=C(C)C)C1=O [Lupulone]	< 3 µM
CCC(C)C(=O)c1c(O)cc(O)c(CC=C(C)C)c1O (stereo not drawn) [AH57-F3, 2-methyl-1-(2,4,6-trihydroxy-3-(3-methylbut-2-en-1-yl)phenyl)butan-1-one]	< 24 µM
CC(=O)c1c(O)c(CC=C(C)C)c(O)c(CC=C(C)C)c1O [AH52-F1, 1-(2,4,6-trihydroxy-3,5-bis-(3-methylbut-2-en-1-yl)phenyl)ethan-1-one]	> 24 µM
CC(C)=CCC1=C(O)C(CC=C(C)C)(CC=C(C)C)C(=O)C(C(=O)CC(C)C)=C1O [AH6-F2, 3,5-dihydroxy-4,6,6-tris(3-methylbut-2-en-1-yl)-2-(3-methylbutanoyl)cyclohexa-2,4-dien-1-one]	< 3 µM
CC(C)=CCC1=C(O)[C@](O)(CC=C(C)C)C(=O)C(C(=O)CC(C)C)=C1O [Humulone, reference compound]	> 24 µM
CC(C)=CCC1=C(O)[C@](O)(CC=C(C)C)C(=O)C(C(=O)C(C)C)=C1O [Co-humulone, reference compound]	> 24 µM
CC(C)=CCC1=C(O)C(CC=C(C)C)(CC=C(C)C)C(=O)C(C(=O)CCC(C)C)=C1O [AH39-F1, 3,5-dihydroxy-4,6,6-tris(3-methylbut-2-en-1-yl)-2-(4-methylpentanoyl)cyclohexa-2,4-dien-1-one]	< 12 µM
CCC(=O)C1=C(O)C(CC=C(C)C)=C(O)C(CC=C(C)C)(CC=C(C)C)C1=O [AH17-F2, 3,5-dihydroxy-4,6,6-tris(3-methylbut-2-en-1-yl)-2-propionylcyclohexa-2,4-dien-1-one]	> 24 µM
CC(C)=CCC1(CC=C(C)C)C(=O)C(C(=O)C(C)C)=C(O)C(C(=O)C(C)C)=C1O [AH66-F1, 1,1'-(2,4-dihydroxy-5,5-bis(3-methylbut-2-en-1-yl)-6-oxocyclohexa-1,3-diene-1,3-diyl)bis(2-methylpropan-1-one)]	< 12 µM
CC(C)=CCC1C(=O)C(C(=O)CC(C)C)=C(O)C=C1O (stereo not drawn) [AH55-F3, 3,5-dihydroxy-6-(3-methylbut-2-en-1-yl)-2-(3-methylbutanoyl)cyclohexa-2,4-dien-1-one]	< 24 µM
